In patent publication US20220041606A1, “POSITIVE ALLOSTERIC MODULATORS OF THE MUSCARINIC ACETYLCHOLINE RECEPTOR M1” (Vanderbilt University, priority 2020, published 2022) one finds EC50 and Emax data, which are given here for 15 molecules.

Structures are written as SMILES.

Assay [1] addresses T1, human mAChR M1 (Homo sapiens, UniProt P11229).
T1 construct: host or cells: CHO-K1 cells (ATCC), stably transfected using Lipofectamine2000
T1 sequence (P11229 1-460): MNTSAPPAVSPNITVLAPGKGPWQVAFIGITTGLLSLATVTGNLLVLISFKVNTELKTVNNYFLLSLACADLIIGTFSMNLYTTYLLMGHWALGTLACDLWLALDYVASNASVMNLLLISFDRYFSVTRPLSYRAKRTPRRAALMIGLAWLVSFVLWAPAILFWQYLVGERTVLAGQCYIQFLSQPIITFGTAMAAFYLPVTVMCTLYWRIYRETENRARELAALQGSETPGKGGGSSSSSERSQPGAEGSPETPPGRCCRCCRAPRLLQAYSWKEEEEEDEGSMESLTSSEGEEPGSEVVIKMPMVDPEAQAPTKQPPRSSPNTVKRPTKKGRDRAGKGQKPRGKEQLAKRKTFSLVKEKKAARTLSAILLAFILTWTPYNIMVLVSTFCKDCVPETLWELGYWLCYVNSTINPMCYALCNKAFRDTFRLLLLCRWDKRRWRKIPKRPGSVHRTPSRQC
Nature of the assay: mAChR M1 cell-based functional assay (calcium mobilization), PAM activity: increase in the EC20 acetylcholine response. To be noted: CHO-K1 cells expressing hM1; potentiation of EC20 acetylcholine response. In outline: (§1)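 Fluorescence ratio calcium read-out (Fluo-4 AM, FDSS 6000) in human M1-expressing CHO-K1 cells. Agonist activity taken as concentration-dependent rise after compound addition; potentiation as enhancement of a subsequent EC20 acetylcholine challenge. Curves from 11-point threefold dilutions fitted by four-parameter logistic; Emax expressed versus acetylcholine maximum.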

The target of assay [2] is T1, human mAChR M1. The assay can be described thus: mAChR M1 cell-based functional assay (calcium mobilization), agonist activity upon compound addition. To be noted: CHO-K1 cells expressing hM1; for EC50: compound alone, before acetylcholine addition; for Emax: relative to the maximum for acetylcholine. In outline:
as §1

For the molecule `Cc1cc(-c2ccc(Cn3cc(C(=O)N[C@H]4CCC[C@@H]4O)c4ncccc4c3=O)c(F)c2)ccn1` [Compound A28, 6-(2-fluoro-4-(2-methylpyridin-4-yl)benzyl)-N-((1S,2S)-2-hydroxycyclopentyl)-5-oxo-5,6-dihydro-1,6-naphthyridine-8-carboxamide], the EC50 on human mAChR M1 [1] is 1.14 µM; at human mAChR M1 [2], > 10 µM. Besides, the maximal response (Emax) on human mAChR M1 [1] is 54%; on human mAChR M1 [2] it was < 5%.
As to `Cn1cc2c(-c3cc(F)c(Cn4cc(C(=O)N[C@H]5CCCCC[C@@H]5O)c5sccc5c4=O)c(F)c3)cccc2n1` [Compound D33, 5-(2,6-difluoro-4-(2-methyl-2H-indazol-4-yl)benzyl)-N-((1S,2S)-2-hydroxycycloheptyl)-4-oxo-4,5-dihydrothieno[3,2-c]pyridine-7-carboxamide], the EC50 on human mAChR M1 [1] was 5.29 µM; on human mAChR M1 [2], > 10 µM. Also, the values for the Emax at human mAChR M1 [1] and at human mAChR M1 [2] were 42% and < 5%, respectively.
As to `Cn1cc2c(-c3cc(F)c(Cn4cc(C(=O)N[C@H]5CCCC[C@@H]5O)c5nccn5c4=O)c(F)c3)cccc2n1` [Compound B20, 6-(2,6-difluoro-4-(2-methyl-2H-indazol-4-yl)benzyl)-N-((1S,2S)-2-hydroxycyclohexyl)-5-oxo-5,6-dihydroimidazo[1,2-c]pyrimidine-8-carboxamide], on human mAChR M1 [1], the EC50 amounted to 0.24 µM and the maximum response (Emax) was found to be 51%. Further, at human mAChR M1 [2], the concentration for a half-maximal effect (EC50) amounted to 2.79 µM and the Emax stood at 63%.
The like results for `Cn1cc(-c2ccc(Cn3cc(C(=O)N[C@H]4CCCC[C@@H]4O)c4ncccc4c3=O)cc2)cn1` [Compound A86, N-((1S,2S)-2-hydroxycyclohexyl)-6-(4-(1-methyl-1H-pyrazol-4-yl)benzyl)-5-oxo-5,6-dihydro-1,6-naphthyridine-8-carboxamide] were, in that order, 0.37 µM, 52%, > 10 µM and < 5%.
The like results for `Cn1cc(-c2ccc(Cn3cc(C(=O)N[C@@H]4CC[C@H]4O)c4ncccc4c3=O)c(F)c2)cn1` [Compound A9, 6-(2-fluoro-4-(1-methyl-1H-pyrazol-4-yl)benzyl)-N-((1R,2R)-2-hydroxycyclobutyl)-5-oxo-5,6-dihydro-1,6-naphthyridine-8-carboxamide] were, in that order, 5.87 µM, 65%, > 10 µM and < 5%.
For `Cn1cc(-c2ccc(Cn3cc(C(=O)N[C@H]4CCCCC[C@@H]4O)c4ncncc4c3=O)c(F)c2)cn1` [Compound A91, 6-(2-fluoro-4-(1-methyl-1H-pyrazol-4-yl)benzyl)-N-((1S,2S)-2-hydroxycycloheptyl)-5-oxo-5,6-dihydropyrido[4,3-d]pyrimidine-8-carboxamide], at human mAChR M1 [1], the EC50 is ≥ 10 µM and the Emax was 34%. Besides, on human mAChR M1 [2], the EC50 was > 10 µM and the Emax is < 5%.
The like results for `Cc1ccc(-c2cc(F)c(Cn3cc(C(=O)N[C@H]4CCOC[C@@H]4O)c4ncccc4c3=O)c(F)c2)cn1` [Compound A34, 6-(2,6-difluoro-4-(6-methylpyridin-3-yl)benzyl)-N-((3R,4S)-3-hydroxytetrahydro-2H-pyran-4-yl)-5-oxo-5,6-dihydro-1,6-naphthyridine-8-carboxamide] were, in that order, 0.62 µM, 65%, 2.88 µM and 12%.
With `CC(C)[C@@H](CO)NC(=O)c1cn(Cc2c(F)cc(-c3cccc4nn(C)cc34)cc2F)c(=O)c2nccnc12` [Compound A75, (S)-6-(2,6-difluoro-4-(2-methyl-2H-indazol-4-yl)benzyl)-N-(1-hydroxy-3-methylbutan-2-yl)-5-oxo-5,6-dihydropyrido[3,4-b]pyrazine-8-carboxamide], on human mAChR M1 [1], the EC50 came to 3.54 µM and the maximal response (Emax) was 56%. Also, on human mAChR M1 [2], the EC50 is > 10 µM and the Emax is < 5%.
On the same counts, the results for `CC1(C)COCCC1NC(=O)c1cn(Cc2ccc(-n3cccn3)cc2)c(=O)c2ccoc12` (stereo not shown) [Compound D1, 5-(4-(1H-pyrazol-1-yl)benzyl)-N-(3,3-dimethyltetrahydro-2H-pyran-4-yl)-4-oxo-4,5-dihydrofuro[3,2-c]pyridine-7-carboxamide] are > 10 µM, 25%, > 10 µM and < 5%.
On the same counts, the results for `Cn1ccc(-c2ccc(Cn3cc(C(=O)N[C@H]4CCCCC[C@@H]4O)c4sccc4c3=O)c(F)c2)n1` [Compound D28, 5-(2-fluoro-4-(1-methyl-1H-pyrazol-3-yl)benzyl)-N-((1S,2S)-2-hydroxycycloheptyl)-4-oxo-4,5-dihydrothieno[3,2-c]pyridine-7-carboxamide] are > 10 µM, 40%, > 10 µM and < 5%.
Regarding `O=C(N[C@H]1CCOC[C@@H]1O)c1cn(Cc2ccc(-n3cccn3)cc2)c(=O)c2cccnc12` [Compound A12, 6-(4-(1H-pyrazol-1-yl)benzyl)-N-((3R,4S)-3-hydroxytetrahydro-2H-pyran-4-yl)-5-oxo-5,6-dihydro-1,6-naphthyridine-8-carboxamide], on human mAChR M1 [1], the 50% effective concentration (EC50) amounted to 1.39 µM and the Emax came to 70%. Moreover, the Emax on human mAChR M1 [2] turned out to be 28%.
As for `O=C(N[C@H]1CCC[C@@H]1O)c1cn(Cc2ccc(-n3cccn3)cc2)c(=O)c2nccnc12` [Compound A61, 6-(4-(1H-pyrazol-1-yl)benzyl)-N-((1S,2S)-2-hydroxycyclopentyl)-5-oxo-5,6-dihydropyrido[3,4-b]pyrazine-8-carboxamide], on human mAChR M1 [1], the EC50 is ≥ 10 µM and the maximal response (Emax) is 33%. Besides, at human mAChR M1 [2], the concentration for a half-maximal effect (EC50) is > 10 µM and the Emax is < 5%.
As for `Cn1cc2c(-c3cc(F)c(Cn4cc(C(=O)N[C@H]5CCC[C@@H]5O)c5occc5c4=O)c(F)c3)cccc2n1` [Compound D20, 5-(2,6-difluoro-4-(2-methyl-2H-indazol-4-yl)benzyl)-N-((1S,2S)-2-hydroxycyclopentyl)-4-oxo-4,5-dihydrofuran[3,2-c]pyridine-7-carboxamide], on human mAChR M1 [1], the EC50 turned out to be 0.81 µM and the maximum response (Emax) came out at 77%. At human mAChR M1 [2], the 50% effective concentration (EC50) is > 10 µM and the Emax is < 5%.
For the molecule `Cn1cc(-c2ccc(Cn3cc(C(=O)N[C@H]4CCOC[C@@H]4O)c4nccn4c3=O)cn2)cn1` [Compound B10, N-((3R,4S)-3-hydroxytetrahydro-2H-pyran-4-yl)-6-((6-(1-methyl-1H-pyrazol-4-yl)pyridin-3-yl)methyl)-5-oxo-5,6-dihydroimidazo[1,2-c]pyrimidine-8-carboxamide], at human mAChR M1 [1], the EC50 turned out to be 0.48 µM. Further, the results for the Emax on human mAChR M1 [1] and at human mAChR M1 [2] were 60% and 41%, respectively.
On to `CC[C@H](C)[C@@H](CO)NC(=O)c1cn(Cc2ccc(-c3cnn(C)c3)cc2F)c(=O)c2nccnc12` [Compound A83, 6-(2-fluoro-4-(1-methyl-1H-pyrazol-4-yl)benzyl)-N-((2S,3S)-1-hydroxy-3-methylpentan-2-yl)-5-oxo-5,6-dihydropyrido[3,4-b]pyrazine-8-carboxamide], for which, at human mAChR M1 [1], the EC50 was ≥ 10 µM and the Emax turned out to be 26%. Moreover, on human mAChR M1 [2], the half-maximal effective concentration (EC50) was > 10 µM and the Emax is < 5%.
